Experimental data: the supplement of paper PMC10307832

Tests used:
Assay in all cases: relative viability (nuclei count vs DMSO), 5 days (fraction); higher = more cells survive
Pemetrexed + Decitabine = compound: Nc1nc2[nH]cc(CCc3ccc(C(=O)N[C@@H](CCC(=O)O)C(=O)O)cc3)c2c(=O)[nH]1 [Pemetrexed] + Nc1ncn([C@H]2C[C@H](O)[C@@H](CO)O2)c(=O)n1 [Decitabine] (partner 2 µM)
In short: (§1)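 Values are medians from duplicate plates. Each reflects relative viability, defined as the nuclei count of treated wells over that of vehicle wells. Lung cancer cell lines in 1536-well plates were pin-tool dosed one day after seeding with one drug alone or with a fixed anchor-drug dose plus five library-drug doses (not always all listed) in √10 steps, then fixed, stained and imaged at 4× after 5 days.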

Idelalisib + Palbociclib = compound: CC[C@H](Nc1ncnc2[nH]cnc12)c1nc2cccc(F)c2c(=O)n1-c1ccccc1 [Idelalisib] + CC(=O)c1c(C)c2cnc(Nc3ccc(N4CCNCC4)cn3)nc2n(C2CCCC2)c1=O [Palbociclib] (partner 0.5 µM)
In short: as §1

Pemetrexed + Luminespib = compound: Nc1nc2[nH]cc(CCc3ccc(C(=O)N[C@@H](CCC(=O)O)C(=O)O)cc3)c2c(=O)[nH]1 [Pemetrexed] + CCNC(=O)c1noc(-c2cc(C(C)C)c(O)cc2O)c1-c1ccc(CN2CCOCC2)cc1 [Luminespib] (partner 0.01 µM)
In short: as §1

Pemetrexed + Navitoclax = compound: Nc1nc2[nH]cc(CCc3ccc(C(=O)N[C@@H](CCC(=O)O)C(=O)O)cc3)c2c(=O)[nH]1 [Pemetrexed] + CC1(C)CCC(c2ccc(Cl)cc2)=C(CN2CCN(c3ccc(C(=O)NS(=O)(=O)c4ccc(N[C@H](CCN5CCOCC5)CSc5ccccc5)c(S(=O)(=O)C(F)(F)F)c4)cc3)CC2)C1 [Navitoclax] (partner 0.5 µM)
In short: as §1

NCI-H2405
relative viability (Pemetrexed + Decitabine; first compound 0.002 µM): 0.717 | relative viability (Pemetrexed + Decitabine; first compound 0.006325 µM): 0.649 | relative viability (Pemetrexed + Decitabine; first compound 0.02 µM): 0.691 | relative viability (Pemetrexed + Decitabine; first compound 0.06325 µM): 0.687 | relative viability (Pemetrexed + Decitabine; first compound 0.2 µM): 0.685 | relative viability (Idelalisib + Palbociclib; first compound 0.04 µM): 0.539 | relative viability (Idelalisib + Palbociclib; first compound 0.1265 µM): 0.484 | relative viability (Idelalisib + Palbociclib; first compound 0.4 µM): 0.494 | relative viability (Idelalisib + Palbociclib; first compound 1.265 µM): 0.512 | relative viability (Idelalisib + Palbociclib; first compound 4 µM): 0.486 | relative viability (Pemetrexed + Luminespib; first compound 0.002 µM): 0.703 | relative viability (Pemetrexed + Luminespib; first compound 0.006325 µM): 0.775 | relative viability (Pemetrexed + Luminespib; first compound 0.02 µM): 0.77 | relative viability (Pemetrexed + Luminespib; first compound 0.06325 µM): 0.818 | relative viability (Pemetrexed + Luminespib; first compound 0.2 µM): 0.789 | relative viability (Pemetrexed + Navitoclax; first compound 0.002 µM): 1.13 | relative viability (Pemetrexed + Navitoclax; first compound 0.006325 µM): 0.882 | relative viability (Pemetrexed + Navitoclax; first compound 0.02 µM): 0.907 | relative viability (Pemetrexed + Navitoclax; first compound 0.06325 µM): 0.778 | relative viability (Pemetrexed + Navitoclax; first compound 0.2 µM): 0.776

NCI-H3122
relative viability (Pemetrexed + Decitabine; first compound 0.002 µM): 0.452 | relative viability (Pemetrexed + Decitabine; first compound 0.006325 µM): 0.379 | relative viability (Pemetrexed + Decitabine; first compound 0.02 µM): 0.413 | relative viability (Pemetrexed + Decitabine; first compound 0.06325 µM): 0.417 | relative viability (Pemetrexed + Decitabine; first compound 0.2 µM): 0.305 | relative viability (Idelalisib + Palbociclib; first compound 0.04 µM): 0.172 | relative viability (Idelalisib + Palbociclib; first compound 0.1265 µM): 0.195 | relative viability (Idelalisib + Palbociclib; first compound 0.4 µM): 0.185 | relative viability (Idelalisib + Palbociclib; first compound 1.265 µM): 0.214 | relative viability (Idelalisib + Palbociclib; first compound 4 µM): 0.203 | relative viability (Pemetrexed + Luminespib; first compound 0.002 µM): 0.106 | relative viability (Pemetrexed + Luminespib; first compound 0.006325 µM): 0.106 | relative viability (Pemetrexed + Luminespib; first compound 0.02 µM): 0.106 | relative viability (Pemetrexed + Luminespib; first compound 0.06325 µM): 0.0892 | relative viability (Pemetrexed + Luminespib; first compound 0.2 µM): 0.0783 | relative viability (Pemetrexed + Navitoclax; first compound 0.002 µM): 0.981 | relative viability (Pemetrexed + Navitoclax; first compound 0.006325 µM): 1.06 | relative viability (Pemetrexed + Navitoclax; first compound 0.02 µM): 1.03 | relative viability (Pemetrexed + Navitoclax; first compound 0.06325 µM): 1.01 | relative viability (Pemetrexed + Navitoclax; first compound 0.2 µM): 0.826

PC-3 [JPC-3]
relative viability (Pemetrexed + Decitabine; first compound 0.002 µM): 0.765 | relative viability (Pemetrexed + Decitabine; first compound 0.006325 µM): 0.845 | relative viability (Pemetrexed + Decitabine; first compound 0.02 µM): 0.956 | relative viability (Pemetrexed + Decitabine; first compound 0.06325 µM): 0.837 | relative viability (Pemetrexed + Decitabine; first compound 0.2 µM): 0.857 | relative viability (Idelalisib + Palbociclib; first compound 0.04 µM): 0.557 | relative viability (Idelalisib + Palbociclib; first compound 0.1265 µM): 0.525 | relative viability (Idelalisib + Palbociclib; first compound 0.4 µM): 0.584 | relative viability (Idelalisib + Palbociclib; first compound 1.265 µM): 0.489 | relative viability (Idelalisib + Palbociclib; first compound 4 µM): 0.539 | relative viability (Pemetrexed + Luminespib; first compound 0.002 µM): 0.678 | relative viability (Pemetrexed + Luminespib; first compound 0.006325 µM): 0.79 | relative viability (Pemetrexed + Luminespib; first compound 0.02 µM): 0.702 | relative viability (Pemetrexed + Luminespib; first compound 0.06325 µM): 0.715 | relative viability (Pemetrexed + Luminespib; first compound 0.2 µM): 0.758 | relative viability (Pemetrexed + Navitoclax; first compound 0.002 µM): 0.726 | relative viability (Pemetrexed + Navitoclax; first compound 0.006325 µM): 0.762 | relative viability (Pemetrexed + Navitoclax; first compound 0.02 µM): 0.796 | relative viability (Pemetrexed + Navitoclax; first compound 0.06325 µM): 0.89 | relative viability (Pemetrexed + Navitoclax; first compound 0.2 µM): 0.749

PC-14
relative viability (Pemetrexed + Decitabine; first compound 0.002 µM): 0.211 | relative viability (Pemetrexed + Decitabine; first compound 0.006325 µM): 0.217 | relative viability (Pemetrexed + Decitabine; first compound 0.02 µM): 0.301 | relative viability (Pemetrexed + Decitabine; first compound 0.06325 µM): 0.0896 | relative viability (Pemetrexed + Decitabine; first compound 0.2 µM): 0.0739 | relative viability (Idelalisib + Palbociclib; first compound 0.04 µM): 0.539 | relative viability (Idelalisib + Palbociclib; first compound 0.1265 µM): 0.511 | relative viability (Idelalisib + Palbociclib; first compound 0.4 µM): 0.439 | relative viability (Idelalisib + Palbociclib; first compound 1.265 µM): 0.561 | relative viability (Idelalisib + Palbociclib; first compound 4 µM): 0.415 | relative viability (Pemetrexed + Luminespib; first compound 0.002 µM): 0.15 | relative viability (Pemetrexed + Luminespib; first compound 0.006325 µM): 0.133 | relative viability (Pemetrexed + Luminespib; first compound 0.02 µM): 0.151 | relative viability (Pemetrexed + Luminespib; first compound 0.06325 µM): 0.136 | relative viability (Pemetrexed + Luminespib; first compound 0.2 µM): 0.137 | relative viability (Pemetrexed + Navitoclax; first compound 0.002 µM): 0.976 | relative viability (Pemetrexed + Navitoclax; first compound 0.006325 µM): 0.976 | relative viability (Pemetrexed + Navitoclax; first compound 0.02 µM): 1.05 | relative viability (Pemetrexed + Navitoclax; first compound 0.06325 µM): 0.428 | relative viability (Pemetrexed + Navitoclax; first compound 0.2 µM): 0.129

RERF-LC-KJ
relative viability (Pemetrexed + Decitabine; first compound 0.002 µM): 0.609 | relative viability (Pemetrexed + Decitabine; first compound 0.006325 µM): 0.753 | relative viability (Pemetrexed + Decitabine; first compound 0.02 µM): 0.801 | relative viability (Pemetrexed + Decitabine; first compound 0.06325 µM): 0.721 | relative viability (Pemetrexed + Decitabine; first compound 0.2 µM): 0.415 | relative viability (Idelalisib + Palbociclib; first compound 0.04 µM): 1.12 | relative viability (Idelalisib + Palbociclib; first compound 0.1265 µM): 1.06 | relative viability (Idelalisib + Palbociclib; first compound 0.4 µM): 1.02 | relative viability (Idelalisib + Palbociclib; first compound 1.265 µM): 0.965 | relative viability (Idelalisib + Palbociclib; first compound 4 µM): 0.759 | relative viability (Pemetrexed + Luminespib; first compound 0.002 µM): 1.39 | relative viability (Pemetrexed + Luminespib; first compound 0.006325 µM): 1.28 | relative viability (Pemetrexed + Luminespib; first compound 0.02 µM): 1.38 | relative viability (Pemetrexed + Luminespib; first compound 0.06325 µM): 1.21 | relative viability (Pemetrexed + Luminespib; first compound 0.2 µM): 0.831 | relative viability (Pemetrexed + Navitoclax; first compound 0.002 µM): 0.952 | relative viability (Pemetrexed + Navitoclax; first compound 0.006325 µM): 0.722 | relative viability (Pemetrexed + Navitoclax; first compound 0.02 µM): 1.31 | relative viability (Pemetrexed + Navitoclax; first compound 0.06325 µM): 1.13 | relative viability (Pemetrexed + Navitoclax; first compound 0.2 µM): 0.741

SK-LU-1
relative viability (Pemetrexed + Decitabine; first compound 0.002 µM): 0.617 | relative viability (Pemetrexed + Decitabine; first compound 0.006325 µM): 0.659 | relative viability (Pemetrexed + Decitabine; first compound 0.02 µM): 0.699 | relative viability (Pemetrexed + Decitabine; first compound 0.06325 µM): 0.642 | relative viability (Pemetrexed + Decitabine; first compound 0.2 µM): 0.603 | relative viability (Idelalisib + Palbociclib; first compound 0.04 µM): 0.424 | relative viability (Idelalisib + Palbociclib; first compound 0.1265 µM): 0.408 | relative viability (Idelalisib + Palbociclib; first compound 0.4 µM): 0.504 | relative viability (Idelalisib + Palbociclib; first compound 1.265 µM): 0.375 | relative viability (Idelalisib + Palbociclib; first compound 4 µM): 0.348 | relative viability (Pemetrexed + Luminespib; first compound 0.002 µM): 0.195 | relative viability (Pemetrexed + Luminespib; first compound 0.006325 µM): 0.2 | relative viability (Pemetrexed + Luminespib; first compound 0.02 µM): 0.187 | relative viability (Pemetrexed + Luminespib; first compound 0.06325 µM): 0.2 | relative viability (Pemetrexed + Luminespib; first compound 0.2 µM): 0.21 | relative viability (Pemetrexed + Navitoclax; first compound 0.002 µM): 0.881 | relative viability (Pemetrexed + Navitoclax; first compound 0.006325 µM): 0.813 | relative viability (Pemetrexed + Navitoclax; first compound 0.02 µM): 0.791 | relative viability (Pemetrexed + Navitoclax; first compound 0.06325 µM): 0.901 | relative viability (Pemetrexed + Navitoclax; first compound 0.2 µM): 0.817

SK-MES-1
relative viability (Pemetrexed + Decitabine; first compound 0.002 µM): 0.369 | relative viability (Pemetrexed + Decitabine; first compound 0.006325 µM): 0.331 | relative viability (Pemetrexed + Decitabine; first compound 0.02 µM): 0.408 | relative viability (Pemetrexed + Decitabine; first compound 0.06325 µM): 0.421 | relative viability (Pemetrexed + Decitabine; first compound 0.2 µM): 0.367 | relative viability (Idelalisib + Palbociclib; first compound 0.04 µM): 0.296 | relative viability (Idelalisib + Palbociclib; first compound 0.1265 µM): 0.311 | relative viability (Idelalisib + Palbociclib; first compound 0.4 µM): 0.299 | relative viability (Idelalisib + Palbociclib; first compound 1.265 µM): 0.315 | relative viability (Idelalisib + Palbociclib; first compound 4 µM): 0.288 | relative viability (Pemetrexed + Luminespib; first compound 0.002 µM): 0.649 | relative viability (Pemetrexed + Luminespib; first compound 0.006325 µM): 0.56 | relative viability (Pemetrexed + Luminespib; first compound 0.02 µM): 0.965 | relative viability (Pemetrexed + Luminespib; first compound 0.06325 µM): 0.688 | relative viability (Pemetrexed + Luminespib; first compound 0.2 µM): 0.773 | relative viability (Pemetrexed + Navitoclax; first compound 0.002 µM): 1.24 | relative viability (Pemetrexed + Navitoclax; first compound 0.006325 µM): 1.1 | relative viability (Pemetrexed + Navitoclax; first compound 0.02 µM): 1.27 | relative viability (Pemetrexed + Navitoclax; first compound 0.06325 µM): 1.26 | relative viability (Pemetrexed + Navitoclax; first compound 0.2 µM): 1.2

SW 1573
relative viability (Pemetrexed + Decitabine; first compound 0.002 µM): 0.577 | relative viability (Pemetrexed + Decitabine; first compound 0.006325 µM): 0.662 | relative viability (Pemetrexed + Decitabine; first compound 0.02 µM): 0.615 | relative viability (Pemetrexed + Decitabine; first compound 0.06325 µM): 0.53 | relative viability (Pemetrexed + Decitabine; first compound 0.2 µM): 0.525 | relative viability (Idelalisib + Palbociclib; first compound 0.04 µM): 0.436 | relative viability (Idelalisib + Palbociclib; first compound 0.1265 µM): 0.376 | relative viability (Idelalisib + Palbociclib; first compound 0.4 µM): 0.346 | relative viability (Idelalisib + Palbociclib; first compound 1.265 µM): 0.372 | relative viability (Idelalisib + Palbociclib; first compound 4 µM): 0.255 | relative viability (Pemetrexed + Luminespib; first compound 0.002 µM): 0.285 | relative viability (Pemetrexed + Luminespib; first compound 0.006325 µM): 0.443 | relative viability (Pemetrexed + Luminespib; first compound 0.02 µM): 0.249 | relative viability (Pemetrexed + Luminespib; first compound 0.06325 µM): 0.125 | relative viability (Pemetrexed + Luminespib; first compound 0.2 µM): 0.176 | relative viability (Pemetrexed + Navitoclax; first compound 0.002 µM): 1.11 | relative viability (Pemetrexed + Navitoclax; first compound 0.006325 µM): 0.927 | relative viability (Pemetrexed + Navitoclax; first compound 0.02 µM): 0.987 | relative viability (Pemetrexed + Navitoclax; first compound 0.06325 µM): 0.889 | relative viability (Pemetrexed + Navitoclax; first compound 0.2 µM): 0.902
